Here are results for 32 compounds from ChEMBL document CHEMBL1150436 (Bioorg Med Chem Lett, 1995).

Test [1] addresses T1, Serotonin 2 (5-HT2) receptor (Rattus norvegicus, UniProt P30994+P08909+P14842). Description: Ability to displace [3H]ketanserin from serotonergic 5-hydroxytryptamine 2 receptor. The test is classed as protein assay.
For test [2], the target named is T2, D(2) dopamine receptor (Rattus norvegicus, UniProt P61169). The test is described as follows: Ability to displace [3H]spiperone from D2 dopamine receptor isolated from the striata of male Wistar rats.
T2 sequence (P61169 whole entry): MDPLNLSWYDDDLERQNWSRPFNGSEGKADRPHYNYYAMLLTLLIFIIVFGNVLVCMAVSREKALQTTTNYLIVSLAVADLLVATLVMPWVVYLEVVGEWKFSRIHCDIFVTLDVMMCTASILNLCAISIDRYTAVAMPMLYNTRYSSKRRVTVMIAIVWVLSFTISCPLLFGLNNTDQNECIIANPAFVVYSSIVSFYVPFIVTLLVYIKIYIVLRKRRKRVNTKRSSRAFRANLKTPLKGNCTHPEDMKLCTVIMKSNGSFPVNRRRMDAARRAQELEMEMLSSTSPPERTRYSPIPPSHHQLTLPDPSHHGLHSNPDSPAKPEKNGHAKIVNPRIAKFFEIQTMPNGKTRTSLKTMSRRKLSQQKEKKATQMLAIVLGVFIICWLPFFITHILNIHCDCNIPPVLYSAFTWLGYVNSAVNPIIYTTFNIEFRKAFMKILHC
In test [3] the target is T3, 5-hydroxytryptamine receptor 1A (Rattus norvegicus, UniProt P19327).
T3 sequence (P19327 whole entry): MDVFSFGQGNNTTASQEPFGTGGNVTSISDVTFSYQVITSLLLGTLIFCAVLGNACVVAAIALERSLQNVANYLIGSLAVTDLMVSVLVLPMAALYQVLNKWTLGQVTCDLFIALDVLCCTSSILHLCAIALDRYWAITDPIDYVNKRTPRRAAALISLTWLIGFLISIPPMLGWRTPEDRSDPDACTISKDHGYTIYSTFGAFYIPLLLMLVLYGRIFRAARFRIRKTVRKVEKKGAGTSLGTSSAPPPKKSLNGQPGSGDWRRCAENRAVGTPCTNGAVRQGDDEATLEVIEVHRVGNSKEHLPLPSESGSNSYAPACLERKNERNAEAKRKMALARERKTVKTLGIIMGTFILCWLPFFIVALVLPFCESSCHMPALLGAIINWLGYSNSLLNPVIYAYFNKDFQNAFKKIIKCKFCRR
Description: Ability to displace [3H]-8-OH-DPAT from serotonergic 5-hydroxytryptamine 1A receptor.

Test [4] concerns the target T3, 5-hydroxytryptamine receptor 1A. The test is described as follows: Compound was evaluated for its ability to displace [3H]8-OH-DPAT from serotonergic 5-hydroxytryptamine 1A receptor.
For test [5], the target named is T1, Serotonin 2 (5-HT2) receptor. The test is described as follows: Compound was evaluated for its ability to displace [3H]ketanserin from serotonergic 5-hydroxytryptamine 2 receptor. In kind it is protein assay.
In test [6] the target is T2, D(2) dopamine receptor. The test is described as follows: Compound was evaluated for its ability to displace [3H]spiperone from D2 dopamine receptor isolated from the striata of male Wistar rats.

Consider `CSc1cc(C(=O)NC[C@H]2CCCN2Cc2ccccc2)c2c(c1)N(C)CCO2`, for which the Ki in test [1] stood at 27 nM; on D(2) dopamine receptor [2], 4.2 nM; in test [3] it was 17 nM.
Consider `CCCCN1CCC[C@@H]1CNC(=O)c1cc(S(N)(=O)=O)ccc1OC`, for which the inhibition constant (Ki) in test [4] was 4500 nM; in test [5], over 1000 nM.
For the compound `CCCCN1CCC[C@@H]1CNC(=O)c1cc(SC)cc2c1OCCN2C`, the results for the Ki (in test [1]; on D(2) dopamine receptor [2]; in test [3]) were 22 nM, 17 nM and 120 nM, respectively.
Consider `CN1CCOc2c(C(=O)NC[C@@H]3CCCN3CCc3ccccc3)cc(Cl)cc21`, for which the Ki at D(2) dopamine receptor [2] was found to be 800 nM; in test [3], 10 nM.
Take `CCCCN1CCC[C@H]1CNC(=O)c1cc(Cl)cc2c1OCCN2C`: the Ki is 12 nM at D(2) dopamine receptor [6] and 34 nM in test [4].
With `CCCCN1CCCC1CNC(=O)c1cccc2c1OCCN2C` (centres undefined), the results for the Ki (on D(2) dopamine receptor [6]; in test [4]; in test [5]) were 270 nM, 170 nM and 2200 nM, respectively.
Taken in the same sequence, the figures for `CCCCCCCCCN1CCC[C@@H]1CNC(=O)c1cc(Cl)cc2c1OCCN2C` were 690 nM, over 1000 nM and over 1000 nM.
Regarding `CCCCN1CCC[C@@H]1CNC(=O)c1cc(Cl)cc2c1OCC2`, the Ki is 400 nM in test [1] and 330 nM in test [3].
Taken in the same sequence, the figures for `CCCCN1CCC[C@H]1CNC(=O)c1cc(Cl)cc2c1OCC2` were 3300 nM and 18 nM.
On to `CN1CCOc2c(C(=O)NC[C@H]3CCCN3Cc3ccccc3)cc(Cl)cc21`, for which the results for the Ki (in test [1]; at D(2) dopamine receptor [2]; in test [3]) were 99 nM, 210 nM and 21 nM, respectively.
Turning to `CCN1CCC[C@H]1CNC(=O)c1cc(Cl)cc2c1OCC2`, the Ki is over 1000 nM in test [1], 6.5 nM on D(2) dopamine receptor [2] and over 1000 nM in test [3].
Regarding `CSc1cc(C(=O)NC[C@@H]2CCCN2Cc2ccccc2)c2c(c1)N(C)CCO2`, the inhibition constant Ki is 550 nM in test [1], 270 nM at D(2) dopamine receptor [2] and 880 nM in test [3].
The matching figures for `CCCCN1CCC[C@H]1CNC(=O)c1cc(SC)cc2c1OCCN2C`: 2100 nM, 3.6 nM and 19 nM.
Taken in the same sequence, the figures for `CCCCCCCCCN1CCC[C@H]1CNC(=O)c1cc(Cl)cc2c1OCC2` were over 1000 nM, over 1000 nM and 570 nM.
With `CCN1CCC[C@@H]1CNC(=O)c1cc(Cl)cc2c1OCC(=O)N2C`, the Ki (in test [1]; at D(2) dopamine receptor [2]; in test [3]) was over 1000 nM throughout.
In the case of `CCCCCCCCCN1CCC[C@H]1CNC(=O)c1cc(Cl)cc2c1OCC(=O)N2C`, the Ki (in test [1]; at D(2) dopamine receptor [2]; in test [3]) was over 1000 nM each time.
`CCCCN1CCCC1CNC(=O)c1cc(S(N)(=O)=O)cc2c1OCCN2C` (centres undefined): the Ki on D(2) dopamine receptor [6] is 670 nM; in test [4] it was 450 nM; in test [5], 3000 nM.
As to `CCN1CCC[C@@H]1CNC(=O)c1cc(Cl)cc2c1OCCN2C`, the Ki (in test [1]; at D(2) dopamine receptor [2]; in test [3]) was over 1000 nM in each case.
For `CCCCN1CCC[C@H]1CNC(=O)c1cc(S(N)(=O)=O)ccc1OC`, the figures for the Ki in test [4] and in test [5] were 1200 nM and over 1000 nM, respectively.
Consider `CCN1CCC[C@H]1CNC(=O)c1cc(Cl)cc2c1OCCN2C`, for which the Ki in test [1] is over 1000 nM; on D(2) dopamine receptor [2], 16 nM; in test [3] it was over 1000 nM.
For `CCCCCCCCCN1CCC[C@H]1CNC(=O)c1cc(Cl)cc2c1OCCN2C`, the results for the Ki (at D(2) dopamine receptor [6]; in test [4]; in test [5]) were 750 nM, 280 nM and over 1000 nM, respectively.
As to `CN1CCOc2c(C(=O)NC[C@H]3CCCN3CCc3ccccc3)cc(Cl)cc21`, the Ki in test [1] is 1700 nM; at D(2) dopamine receptor [2] it was 57 nM; in test [3] it was 35 nM.
The matching figures for `CCN1CCC[C@H]1CNC(=O)c1cc(Cl)cc2c1OCC(=O)N2C`: over 1000 nM, over 1000 nM and over 1000 nM.
The matching figures for `CCCCCCCCCN1CCC[C@@H]1CNC(=O)c1cc(S(N)(=O)=O)ccc1OC`: 3700 nM, 92 nM and 16 nM.
As to `CCCCCCCCCN1CCC[C@@H]1CNC(=O)c1cc(Cl)cc2c1OCC(=O)N2C`, the Ki (in test [1]; on D(2) dopamine receptor [2]; in test [3]) was over 1000 nM throughout.
In the case of `CCCCCCCCCN1CCC[C@@H]1CNC(=O)c1cc(Cl)cc2c1OCC2`, the Ki was over 1000 nM in test [1], 84 nM at D(2) dopamine receptor [2] and 330 nM in test [3].
Take `CCCCN1CCC[C@@H]1CNC(=O)c1cc(Cl)cc2c1OCCN2C`: the Ki on D(2) dopamine receptor [6] stood at 630 nM; in test [4] it was 430 nM.
As to `CCCCN1CCC[C@@H]1CNC(=O)c1cc(Cl)cc2c1OCC(=O)N2C`, the Ki (in test [1]; on D(2) dopamine receptor [2]; in test [3]) was over 1000 nM in each case.
On to `CCCCCCCCCN1CCC[C@H]1CNC(=O)c1cc(S(N)(=O)=O)ccc1OC`, for which the inhibitory constant (Ki) in test [1] was found to be 2300 nM; on D(2) dopamine receptor [2], 180 nM; in test [3] it was 81 nM.
Consider `CCCCN1CCC[C@H]1CNC(=O)c1cc(Cl)cc2c1OCC(=O)N2C`, for which the Ki (in test [1]; on D(2) dopamine receptor [2]; in test [3]) was over 1000 nM throughout.
For `CN1CCOc2c(C(=O)NC[C@@H]3CCCN3Cc3ccccc3)cc(Cl)cc21`, the Ki in test [1] came to 420 nM; at D(2) dopamine receptor [2], 310 nM; in test [3] it was 220 nM.
The matching figures for `CCN1CCC[C@@H]1CNC(=O)c1cc(Cl)cc2c1OCC2`: over 1000 nM, over 1000 nM and over 1000 nM.
